The record followed here is ChEMBL document CHEMBL1201862, “PubChem BioAssay data set” (2004).

Test systems include MDA-MB-435; SW-620; SF-268; NCI-H23; HCT-15; SK-MEL-2; RPMI-8226; SF-539; CAKI-1; ACHN; M14; LOX IMVI; COLO 205; HOP-92; KM12; OVCAR-4; HT-29; HOP-62; NCI-H226; RXF 393.
Assay in all cases: DTP human tumour cell line panel, 48 h

Molecules are shown by their SMILES.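 Each compound was tested at five concentrations against cells in 96-well plates for 48 hours. GI50: concentration for 50% inhibition of growth.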 Activity calls are given as the source filed them. Rule as the data show it: active = GI50 up to about 1.1 µM and inactive = higher.

The term GI50 denotes the concentration at which growth is held to half of that of the control. As for `CCOn1cc(C[C@@]2(O)C(=O)OC3[C@@H](O)CO[C@@]32O)c2ccccc21` (stereo not given in full), the GI50 in the assay with MDA-MB-435 was > 100 µM (inactive); in the assay on SW-620, > 100 µM (inactive); in the assay with SF-268, > 100 µM (inactive); with NCI-H23, > 100 µM (inactive); in the assay with HCT-15, > 100 µM; with SK-MEL-2 it was > 100 µM (inactive). Also, the GI50 with RPMI-8226, in the assay with SF-539, in the assay on CAKI-1, with ACHN, with M14 and in the assay on LOX IMVI was > 100 µM (inactive) throughout. Moreover, the GI50 in the assay with COLO 205, in the assay on HOP-92, with KM12, in the assay with OVCAR-4, in the assay on HT-29 and with HOP-62 was > 100 µM (inactive) throughout. For the same molecule, the GI50 in the assay with NCI-H226 and in the assay with RXF 393 was > 100 µM (inactive) in each case.

Turning to `C[C@H](NC(=O)c1ccc(CNC(=O)/C=C/c2cccc(Oc3ccccc3)c2)cc1)c1ccccc1`, the GI50 in the assay on MDA-MB-435 is > 100 µM (inactive); in the assay on SW-620, > 100 µM (inactive); in the assay with SF-268 it was > 100 µM (inactive); with NCI-H23 it was > 100 µM (inactive); in the assay on HCT-15, > 100 µM; with SK-MEL-2 it was > 100 µM (inactive). For the same molecule, the GI50 with RPMI-8226 is > 100 µM (inactive); in the assay with SF-539, 27 µM (inactive); in the assay with CAKI-1 it was 22.6 µM (inactive); in the assay on ACHN it was 57.9 µM (inactive); with M14, > 100 µM (inactive); with LOX IMVI, > 100 µM (inactive). In addition, the GI50 with COLO 205 is > 100 µM (inactive); in the assay with HOP-92, > 100 µM (inactive); in the assay with KM12, > 100 µM (inactive); in the assay with OVCAR-4, 83.2 µM (inactive); in the assay on HT-29 it was > 100 µM (inactive); in the assay on HOP-62, 36.9 µM (inactive). Further, the GI50 with NCI-H226 was 32.7 µM (inactive); in the assay on RXF 393, 26.7 µM (inactive).

For the molecule `CCC(=O)Oc1c2ccsc2c(OC(=O)CC)c2ccsc12`, the GI50 in the assay with MDA-MB-435 was 0.0604 µM (active); with SW-620, 0.471 µM (active); in the assay with SF-268 it was 0.518 µM (active); in the assay on NCI-H23 it was 0.182 µM (active); with HCT-15, 0.318 µM; in the assay with SK-MEL-2 it was 0.344 µM (active). In addition, the GI50 with RPMI-8226 is 0.452 µM (active); in the assay on SF-539 it was 0.208 µM (active); with CAKI-1, 2.42 µM (inactive); with ACHN, 0.419 µM (active); with M14 it was 0.161 µM (active); in the assay on LOX IMVI, 0.0661 µM (active). In addition, the GI50 in the assay with COLO 205 was 5.51 µM (inactive); in the assay on HOP-92 it was 1.42 µM (inactive); in the assay on KM12 it was 1.8 µM (inactive); in the assay with OVCAR-4, 0.948 µM (active); in the assay with HT-29 it was 2.41 µM (inactive); in the assay on HOP-62 it was 0.849 µM (active). The GI50 in the assay with NCI-H226 is 2.06 µM (inactive); with RXF 393, 1 µM (active).

For the molecule `NC1=NCCN1CC(=O)O` [CYCLOCREATINE], the GI50 in the assay with MDA-MB-435 is > 1000 µM (inactive); in the assay on SW-620, > 1000 µM (inactive); in the assay on SF-268, 4990 µM (inactive); in the assay on NCI-H23, > 1000 µM (inactive); with HCT-15, > 1000 µM; with SK-MEL-2 it was > 1000 µM (inactive). Also, the GI50 with RPMI-8226 is > 1000 µM (inactive); in the assay on SF-539 it was > 1000 µM (inactive); with CAKI-1 it was > 10000 µM (inactive); with ACHN it was > 1000 µM (inactive); in the assay with M14, > 1000 µM (inactive); with LOX IMVI it was > 1000 µM (inactive). Also, the GI50 with COLO 205 is > 1000 µM (inactive); in the assay with HOP-92, > 1000 µM (inactive); with KM12 it was > 10000 µM (inactive); in the assay with OVCAR-4, > 1000 µM (inactive); in the assay on HT-29 it was > 1000 µM (inactive); in the assay with HOP-62, > 1000 µM (inactive). Besides, the GI50 in the assay on NCI-H226 and with RXF 393 was > 1000 µM (inactive) each time.

For `NS(=O)(=O)OCCCCCCCOS(N)(=O)=O`, the GI50 with MDA-MB-435 was 410 µM (inactive); in the assay on SW-620, 334 µM (inactive); with SF-268, 130 µM (inactive); in the assay with NCI-H23, 245 µM (inactive); in the assay with HCT-15 it was 349 µM; in the assay with SK-MEL-2 it was 364 µM (inactive). Further, the GI50 is 296 µM (inactive) with RPMI-8226; 138 µM (inactive) in the assay with SF-539; 84.3 µM (inactive) in the assay on CAKI-1; 64.9 µM (inactive) with ACHN; 187 µM (inactive) in the assay with M14; 161 µM (inactive) in the assay with LOX IMVI. Further, the GI50 in the assay with COLO 205 was 394 µM (inactive); with HOP-92, 215 µM (inactive); with KM12, 379 µM (inactive); in the assay on OVCAR-4 it was 409 µM (inactive); in the assay on HT-29, 504 µM (inactive); with HOP-62, 142 µM (inactive). In addition, the GI50 in the assay on NCI-H226 was 292 µM (inactive); in the assay on RXF 393, 289 µM (inactive).

In the case of `O=C1C=CC=C/C1=C1\N=C(c2ccccc2OCC(=O)c2ccc(Br)cc2)SS1`, the GI50 with MDA-MB-435 is > 100 µM (inactive); with SW-620 it was > 100 µM (inactive); with SF-268, 32 µM (inactive); with NCI-H23 it was 35.2 µM (inactive); with HCT-15, > 100 µM; with SK-MEL-2 it was 42.5 µM (inactive). The GI50 is > 100 µM (inactive) in the assay on RPMI-8226; 24.4 µM (inactive) with SF-539; 34.6 µM (inactive) with CAKI-1; 62.7 µM (inactive) in the assay on ACHN; 73.3 µM (inactive) with M14; > 100 µM (inactive) in the assay on LOX IMVI. For the same molecule, the GI50 in the assay with COLO 205 is > 100 µM (inactive); in the assay with HOP-92 it was 63.8 µM (inactive); in the assay on KM12, > 100 µM (inactive); in the assay with OVCAR-4, 40.1 µM (inactive); with HT-29, > 100 µM (inactive); in the assay with HOP-62, 4.08 µM (inactive). Besides, the GI50 is 48 µM (inactive) in the assay on NCI-H226 and 30 µM (inactive) in the assay on RXF 393.
